Data as given in patent US4001323A, “Water-soluble, non-ionizing hydroxy-containing amide derivatives of 2,4,6-triiodo-isophthalic acid” (Savac AG, priority 1974, dated 1977).
In brackets after ≈: the same amount, converted by molar mass.

Assays:
[1] = Solubility in water (Table I); format: physicochemical; settings: for solubility: water
Description: The following Examples are further illustrative of this invention. All solubility values are in grams per 100 ml unless stated otherwise.

mice [2] = assay: Acute toxicity LD50 in mice (i.v., i.p., i.ce.); format: in vivo; settings: for Toxicity, LD50, i.ce.: intracerebral, 5 ml/kg, concentration varied, evaluated after 48 hours; for Toxicity, LD50, i.v.: intravenous, 20 mg I per kg and minute; for Toxicity, LD50, i.v. / Toxicity, LD50, i.p.: 400 mg I per ml, evaluated after 12 days; for Toxicity, LD50, i.p.: intraperitoneal
Description: (§1) The solutions injected for i.v., i.p., i.ci., and i.ca. toxicity tests contained 400 mg I per ml. The rate of injection was 20 mg I per kg and minute for i.v. and i.ca. toxicity. In the tests for i.ce. toxicity, the injected volume was 5ml/kg, and the concentration was varied. Results of i.v. and i.p. toxicity tests were evaluated after 12 days, results of i.ce. and i.ca. toxicity tests after 48 hours.

rabbits = assay: Acute intracisternal toxicity LD50 in rabbits; format: in vivo; settings: 400 mg I per ml
Description: as §1

rats = assay: Acute intracarotideal toxicity LD50 in rats; format: in vivo; settings: 400 mg I per ml, 20 mg I per kg and minute, evaluated after 48 hours
Description: as §1

[3] = Viscosity of aqueous solutions; format: physicochemical
Description: Aqueous solutions of Compound A containing 300 and 400 mg iodine respectively had viscosities of 8.95 and 40.6 c.p. at 20°, 4.70 and 16.1 c.p. at 37° C. A low viscosity facilitates injection.

[4] = Thermal stability of aqueous solutions; format: physicochemical; design: key to Appearance, initial / Appearance, 30 min. / Appearance, 15 hrs.: (1): Clear solution; (2): Colorless; (3): Slightly colored; (4): Brown suspension, black sediment; settings: 400 mg I per ml, under nitrogen, 120° C
Description: For a comparison of thermal stability, aqueous solutions of Compounds A and H containing 400 mg I per ml where heated under nitrogen at 120° C. pH, iodide ion concentration and appearance were determined initially, after 30 minutes and after 15 hours.

[5] = Solubility in organic solvents; format: physicochemical
Description: (§2) 10 Ml of a solution containing 10 g Compound A was stored several days at 4° C, whereby only 2.3 g of the compound was precipitated.

[6] = Storage / supersaturation stability of aqueous solutions; format: physicochemical
Description: as §2
The residue was recrystallized from aqueous methanol and consisted of 11.6 g DL-5-α,β-dihydroxypropionylamino-2,4,6-triiodo-isophtalic acid di-(1,3-dihydroxyisopropylamide) (62.5% yield). It sintered and melted at 210° - 230° C and decomposed at 260° C. It gave an Rf value of 0.15 by thin layer chromatography on silica gel with chloroform/methanol/aqueous 25% ammonia 6:3:1. It was identified by elementary analysis for carbon and iodine which yielded values of 25.70% C and 48.29% I against 25.74% and 48.00% respectively calculated for C17 H22 I3 N3 O9.

[7] = cited from earlier work
mice [8] = settings: intravenous, literature; cited from earlier work
[9] = in vivo; cited from earlier work
[10] = 20° C, read-out: Solubility in water at 20° C
[11] = 60° C, read-out: Solubility in water at 60° C
[12] = 40° C, read-out: Solubility in water at 40° C

Row | Molecule | Solubility in water (in words) [1] | solubility [1, 10] [mg/mL] | solubility [1, 11] [mg/mL] | solubility [1, 12] [mg/mL] | Toxicity, LD50, i.ce. (mice [2]) [mg I/kg] | Toxicity, LD50, i.v. (mice [2]) [mg I/kg] | Toxicity, LD50, i.ci. (rabbits) [mg I/kg] | also measured
1 | 5-α-acetoxypropionylamino-2,4,6-triiodo-isophthalic acid di-(2,2-dimethyl-1,3-dioxolan-4-yl-methylamide) | practically insoluble in water |  |  |  |  |  |  | 
2 | CC(=O)Nc1c(I)c(C(=O)N(C)CC(O)CO)c(I)c(C(=O)N(C)CC(O)CO)c1I (stereo not shown) [G, 5-acetylamino-2,4,6-triiodo-isophthalic acid di-(N-methyl-2,3-dihydroxypropylamide)] |  | 550 (≈ 710 mM) |  |  | 820 | 15700 | 81 | 
3 | C[C@H](O)C(=O)Nc1c(I)c(C(=O)NC(CO)CO)c(I)c(C(=O)NC(CO)CO)c1I [Compound A, L-5-α-Hydroxypropionylamino-2,4,6-triiodo-isophthalic acid di-(1,3-dihydroxyisopropylamide)] | very readily soluble in water | 890 (≈ 1150 mM) | 1150 (≈ 1480 mM) | 1040 (≈ 1340 mM) | 1500 | 21800 | 250 | Toxicity, LD50, i.p. (mice [2]): 20000 mg I/kg; Toxicity, LD50, i.ca. (rats): 6500 mg I/kg; Viscosity of aqueous solution, 300 mg iodine, 20° C ([3]; 300 mg iodine, 20° C): 8.95 c.p.; Viscosity of aqueous solution, 300 mg iodine, 37° C ([3]; 300 mg iodine, 37° C): 4.70 c.p.; Viscosity of aqueous solution, 400 mg iodine, 20° C ([3]; 400 mg iodine, 20° C): 40.6 c.p.; Viscosity of aqueous solution, 400 mg iodine, 37° C ([3]; 400 mg iodine, 37° C): 16.1 c.p.; Appearance, 30 min. [4]: (1) (2); iodide ion concentration, 30 min. [4]: 0.3 mg I' per ml; pH, 30 min. [4]: 7.29; Appearance, 15 hrs. [4]: (1) (3); iodide ion concentration, 15 hrs. [4]: 1.8 mg I' per ml; pH, 15 hrs. [4]: 5.15; Appearance, initial [4]: (1) (2); iodide ion concentration, initial [4]: 0.15 mg I' per ml; pH, initial [4]: 7.43; Solubility in ethanol (in words) ([5]; ethanol): miscible with boiling ethanol; Solubility in methanol ([5]; methanol): practically unlimited; solubility ([5]; organic solvent or mixture, ethanol, room temperature): ~100 mg/mL (≈ 129 mM); Amount precipitated from aqueous solution on storage ([6]; 10 ml of solution containing 10 g, several days at 4° C): 2.3 g
4 | CC(=O)Nc1c(I)c(C(=O)N[C@H]2C(O)O[C@H](CO)[C@@H](O)[C@@H]2O)c(I)c(N(C)C(C)=O)c1I (stereo partly shown) [Compound H, 3-acetylamino-5-N-methyl-acetylamino-2,4,6-triiodobenzoyl-glucosamine, reference compound] |  | ~800 (≈ 1010 mM) |  |  | 1400 | 10200 | 100 | Toxicity, LD50, i.p. (mice [2]): 4800 mg I/kg; Appearance, 30 min. [4]: (3); iodide ion concentration, 30 min. [4]: 1.71 mg I' per ml; pH, 30 min. [4]: 6.45; Appearance, 15 hrs. [4]: (4); iodide ion concentration, 15 hrs. [4]: 40.60 mg I' per ml; pH, 15 hrs. [4]: 2.65; Appearance, initial [4]: (1); iodide ion concentration, initial [4]: 0.66 mg I' per ml; pH, initial [4]: 6.54; Solubility in water (in words, known compounds) [7]: very soluble in water; i.v. LD50 in mice (F.L. Weitl, 170th Am. Chem. Soc. meeting) (mice [8]): 23800 mg/kg; i.v. LD50 in mice (F.L. Weitl, 170th Am. Chem. Soc. meeting), as iodine (mice [8]): 11400 mg I per kg; Toxicity (in words, known compound) [9]: relatively non-toxic
5 | O=S(=O)(CI)NC(CO)CO [Compound I, iodomethanesulfonic acid αγ-dihydroxyisopropylamide] |  |  |  |  | 385 | 4700 | 89 | 
6 | CNC(=O)c1c(I)c(NC(=O)CCCCC(=O)Nc2c(I)c(C(=O)O)c(I)c(C(=O)NC)c2I)c(I)c(C(=O)O)c1I [Compound K, 5,5'-adipoyldiimino-bis-(2,4,6-triiodo-N-methyl-isophthalamic acid)] |  |  |  |  | 280 | 5500 | 37 | 

The next lines start with results.

Row | Solubility in water (in words) [1] | solubility [1, 10] [mg/mL] | solubility [1, 11] [mg/mL] | solubility [1, 12] [mg/mL] | Molecule | Toxicity, LD50, i.ce. (mice [2]) [mg I/kg] | Toxicity, LD50, i.v. (mice [2]) [mg I/kg] | Toxicity, LD50, i.ci. (rabbits) [mg I/kg] | also measured
7 | poor solubility | 2 (≈ 2.68 mM) | 5 (≈ 6.69 mM) |  | CC(=O)Nc1c(I)c(C(=O)NC(CO)CO)c(I)c(C(=O)NC(CO)CO)c1I [E, 5-acetylamino-2,4,6-triiodo-isophthalic acid di-(1,3-dihydroxisopropylamide), reference compound] |  |  |  | 
8 | good solubility in warm water |  |  |  | O=C(NC(CO)CO)c1c(I)c(NC(=O)C(O)CO)c(I)c(C(=O)NC(CO)CO)c1I (racemic) [DL-5-α,β-dihydroxypropionylamino-2,4,6-triiodo-isophtalic acid di-(1,3-dihydroxyisopropylamide)] |  |  |  | Stability of supersaturated solutions ([6]; 37° C, water): stable for several hours at 37 °C
9 | very easily soluble in water | 157 | 400 | 210 | C[C@H](O)C(=O)Nc1c(I)c(C(=O)NCC(O)CO)c(I)c(C(=O)NCC(O)CO)c1I (mixture of isomers) [Compound C, L-5-α-hydroxypropionylamino-2,4,6-triiodo-isophthalic acid di-(DL-2,3-dihydroxypropyl-amide)] |  |  |  | Solubility in ethanol (in words) ([5]; ethanol): somewhat less soluble in ethanol
10 |  | 300 (≈ 386 mM) | 320 (≈ 412 mM) | 300 (≈ 386 mM) | CC(O)C(=O)Nc1c(I)c(C(=O)NC(CO)CO)c(I)c(C(=O)NC(CO)CO)c1I (racemic) [Compound B, dl-5-α-hydroxypropionylamino-2,4,6triiodo-isophthalic acid di-(1,3-dihydroxyisopropylamide)] |  |  |  | 
11 | poor solubility | 5 (≈ 6.69 mM) | 15 (≈ 20.1 mM) | 8 (≈ 10.7 mM) | CC(=O)Nc1c(I)c(C(=O)NCC(O)CO)c(I)c(C(=O)NCC(O)CO)c1I (stereo not shown) [Compound F, 5-acetylamino:2,4,6-triiodo-isophthalic acid di-(2,3-dihydroxypropylamide), reference compound] |  |  |  | 
12 | somewhat less soluble than Compound C | 140 | 340 | 200 | CC(O)C(=O)Nc1c(I)c(C(=O)NCC(O)CO)c(I)c(C(=O)NCC(O)CO)c1I (mixture of isomers) [Compound D, 5-DL-α-Hydroxypropionylamino-2,4,6-triiodo-isophthalic acid di-(DL-2,3-dihydroxypropylamide)] |  |  |  | Solubility in water at 20° C ([1]; 20° C): 14 g/100 ml; Solubility in water at 40° C ([1]; 40° C): 20 g/100 ml; Solubility in water at 60° C ([1]; 60° C): 34 g/100 ml
